In US5843941A, “Ras farnesyl transferase inhibitors” (Genentech, Inc., priority 1994, dated 1998):
Like-named read-outs stand apart in the source and are kept apart here.

Experiments:
[1] = test system: farnesylated proteins F1, F2 and F3 in Met18b-2 cells; experiment: Inhibition of intracellular farnesylation in intact Met18b-2 cells, Triton-soluble proteins F1, F2, F3; format: cell-based, Chinese hamster; settings: Cricetulus griseus, read-out: EC 90% "B isomer"
Text: To study farnesylation in intact cells we used Met18b-2 cells, a line of Chinese hamster ovary (CHO) cells that takes up [3H]mevalonate efficiently (see Faust, J., and Krieger, M. J. Biol. Chem. 262, 1966 (1987)) owing to the production of a mevalonate transport protein (see Kim, C. M., Goldstein, J. L., Brown, M. S. J. Biol. Chem. 267, 23113 (1992)). The [3H]mevalonate is converted by the cells into [3H]farnesyl pyrophosphate and [3H]geranylgeranyl pyrophosphate, which are then attached to proteins (Kim, C. M., Goldstein, J. L., Brown, M. S. J. Biol. Chem. 267, 23113 (1992)). In the assay, stock cultures of Met18b-2 cells were seeded at a density of 3-105 cells per 60 mm dish in 3 ml of medium A (Dulbecco's modified Eagle medium/Ham's F12 medium (1:1, v/v) containing 100 U/ml penicillin and 100 μg/ml streptomycin) supplemented with 5% (v/v) fetal calf serum (FCS). On day 3, each monolayer was refed with 1 ml medium A supplemented with 1% FCS (dialyzed against 0.15 M NaCl). At this point the cells were treated with 100 μM compactin (see Brown, M. S., Faust, J. R., Goldstein, J. L., Kaneko, I., and Endo, A. J. Biol. Chem. 253, 1121 (1978)) which blocks the synthesis of unlabeled mevalonate within the cells. Each compound was dissolved at 25 mM in DMSO/10 mM DTT immediately before use and 10 μl of this solution added directly. After 2 hr incubation at 37° C., each monolayer received 100 μCi [3H]mevalonate (60 Ci/mmol, American Radiolabeled Chemicals, Inc.) added in 100 μl of the medium A, and the incubation continued for 4 hr. The cells were harvested by rinsing three times with 3 ml of 50 mM Tris-HCl/0.15 M NaCl (pH 7.5). 300 μl of lysis buffer (0.5X Dulbecco's phosphate-buffered saline containing 1% Triton X-100, 5 μg/ml leupeptin, 5 μg/ml pepstatin, 0.5 mM phenylmethylsulfonyl fluoride, and 0.05 U/ml aprotinin) was added to each monolayer. After incubation on ice for 5 mon, the lysates were centrifuged 30 sec in a microfuge at 12,000 g. The resulting supernatant was tranferred to a new tube, and each pellet was resuspended in 60 μl of lysis buffer. Protein concentrations were determined using the BCA protein assay reagent (Pierce) according to the manufacturer's instructions. Detergent-soluble (supernatant) and -insoluble (pellet) samples were mixed with 2X SDS sample buffer (see Laemmli, U. K. Nature 227, 680 (1970)) and heated at 95° C. for 5 min before electrophoresis. Each lane contained 90 μg protein, and was run on a 12.5% SDS-polyacrylamide gel. The gel was dried, treated with ENTENSIFY (NEN-DuPont), and exposed to Kodak XOMAT-AR film for 9 h at -80° C. to allow visualization of all prenylated proteins. Migration of [14C]methylated molecular weight standards (Amersham) were used as markers.
The results of this assay are shown in FIG. 3, using a final concentration of 250 μM for each inhibitor. […] As shown in the figure, none of the control peptides or control benzodiazepine-peptideomimetics altered the prenylation of proteins in intact cells.
Using the same cells and procedures followed above for Example 125, we measured the dose dependence upon the inhibition of farnesylation in intact cells. […] Compound 37B inhibited the famesylation of F1-3 detectably at 10 μM, and almost completely at 25 μM.
In this manner, it is possible to obtain data regarding the comparative potency of these inhibitors upon the level of intracellular farnesylation. We have chosen to report the EC90% values for these inhibitors as the concentration required for a reduction in the Triton- soluble labelling (denoted F-1, F-2, and F-3) to 90% of control cells (untreated).

CAAX farnesyltransferase = CAAX farnesyltransferase (Rattus norvegicus, UniProt Q02293+Q04631); experiment: In vitro inhibition of CAAX farnesyltransferase; format: biochemical; design: purified to homogeneity from rat brain homogenates; from tissue; host or cells: rat brain; alternatively recombinant enzyme from a baculovirus expression system; settings: Table D
How it was run: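 Native or recombinant (baculovirus-infected cells, Q-Sepharose purified) farnesyltransferase incubated 30 min at 37 °C. [3H]farnesyl transfer to p21H-ras measured by SDS/trichloroacetic acid precipitation, nitrocellulose filtration and scintillation counting.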

Sequence of CAAX farnesyltransferase (Q02293 whole entry, one chain of several): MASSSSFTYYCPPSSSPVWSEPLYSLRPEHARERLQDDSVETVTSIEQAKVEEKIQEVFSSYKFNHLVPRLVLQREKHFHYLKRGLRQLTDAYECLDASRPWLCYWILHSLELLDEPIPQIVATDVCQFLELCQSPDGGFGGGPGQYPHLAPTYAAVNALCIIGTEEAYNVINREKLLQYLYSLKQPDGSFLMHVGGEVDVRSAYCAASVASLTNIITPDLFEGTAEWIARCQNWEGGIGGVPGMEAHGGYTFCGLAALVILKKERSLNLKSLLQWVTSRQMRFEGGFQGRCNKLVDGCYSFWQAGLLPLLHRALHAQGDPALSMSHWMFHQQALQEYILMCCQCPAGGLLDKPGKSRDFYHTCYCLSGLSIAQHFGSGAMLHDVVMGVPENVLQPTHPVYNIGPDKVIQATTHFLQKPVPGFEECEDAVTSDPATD

Row | SMILES | EC90 [1] | EC50 (CAAX farnesyltransferase; EC50 (μM) "B", diastereomer B) | EC50 (CAAX farnesyltransferase; diastereomer A, read-out: EC50 (μM) "A") | EC50 (CAAX farnesyltransferase; diastereomer B, read-out: EC50 (μM) "B") | EC50 (CAAX farnesyltransferase; EC50 (μM) "A", diastereomer A)
1 | CN(C(=O)[C@@H](N)CSSC(C)(C)C)C1N=C(c2ccccc2)c2ccccc2N(CC(=O)N[C@@H](Cc2ccccc2)C(=O)OC2CCCCC2)C1=O (stereo partly drawn) [compound 117, N-[[3-[(2-amino-3-tert-butylthiomercapto-1-oxopropyl)methylamino]-2,3-dihydro-2-oxo-5-phenyl-1H-1,4-benzodiazepin-1-yl]acetyl]-L-phenylalanine cyclohexyl ester] | 3 µM | 1.6 µM | – | – | –
2 | CN(C(=O)[C@@H](N)CSSC(C)(C)C)C1N=C(c2ccccc2)c2cc(Cl)ccc2N(CC(=O)N[C@@H](Cc2ccccc2)c2nnn[nH]2)C1=O (stereo partly drawn) [compound 119, N-[[3-[(2-amino-3-tert-butylthiomercapto-1-oxopropyl)methylamino]-2,3-dihydro-2-oxo-5-phenyl-7-chloro-1H-1,4-benzodiazepin-1-yl]acetyl]-L-phenylalanine tetrazole] | 30 µM | – | > 3 µM | 0.017 µM | –
3 | CN(C(=O)[C@@H](N)CSSC(C)(C)C)C1N=C(c2ccccc2)c2cc(Cl)ccc2N(CC(=O)N[C@@H](Cc2ccccc2)C(=O)OC2CCCCC2)C1=O (stereo partly drawn) [compound 120, N-[[3-[(2-amino-3-tert-butylthiomercapto-1-oxopropyl)methylamino]-2,3-dihydro-2-oxo-5-phenyl-7-chloro-1H-1,4-benzodiazepin-1-yl]acetyl]-L-phenylalanine cyclohexyl ester] | 5 µM | > 3 µM | – | – | > 3 µM
